Measured values published in US7932262B2 (Novartis AG, priority 2006, dated 2011).
Like-named read-outs stand apart in the source and are kept apart here.

How the values were obtained:
[1] = target: T1, PDK1 kinase (Homo sapiens, UniProt O15530); test: PDK1 Kinase Alpha Screen Assay; assay type: biochemical; details: PDK1 Kinase Alpha Screen Assay; read-out: PDK1 IC50
T1 sequence (O15530 1-556): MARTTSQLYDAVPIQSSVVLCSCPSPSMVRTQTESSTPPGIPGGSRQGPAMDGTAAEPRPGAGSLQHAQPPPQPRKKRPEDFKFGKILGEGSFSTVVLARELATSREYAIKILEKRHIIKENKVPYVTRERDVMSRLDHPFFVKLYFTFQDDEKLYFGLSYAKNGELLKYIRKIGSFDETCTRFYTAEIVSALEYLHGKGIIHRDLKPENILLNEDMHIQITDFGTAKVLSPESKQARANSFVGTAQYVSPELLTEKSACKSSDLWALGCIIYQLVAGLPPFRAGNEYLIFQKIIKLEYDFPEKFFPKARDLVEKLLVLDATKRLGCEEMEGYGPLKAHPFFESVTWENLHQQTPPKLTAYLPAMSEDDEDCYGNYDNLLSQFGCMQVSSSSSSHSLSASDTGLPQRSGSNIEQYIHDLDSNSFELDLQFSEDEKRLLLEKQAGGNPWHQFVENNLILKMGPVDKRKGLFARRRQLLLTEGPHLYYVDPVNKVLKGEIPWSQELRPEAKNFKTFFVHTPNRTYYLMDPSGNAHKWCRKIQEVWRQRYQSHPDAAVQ
Procedure, shortened: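 Detection used AlphaScreen: streptavidin donor and protein A acceptor beads (25 μg/ml each) bridged by a phospho-(Ser/Thr) PKA substrate antibody binding phosphorylated peptide. Reaction: biotin-PDK1-4 peptide (50 nM), ATP (10 uM), PDK1 in pH 7.5 Tris/MgCl2/DTT buffer, 3-18 hours, EDTA-stopped.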

[2] = tested on: PC3MM cells; test: Cell Proliferation Assay (Cell Titer Glo), PC3MM; assay type: cell-based; details: read-out: CPEC50 PC3MM
Procedure: IV. Cell Proliferation Assay Protocol:
A2780, PC-3, or PC3MM cells were seeded at 1000 cells/well in 100 μL/well (10.000 cells/mL) growth media in 96-well plates. Cells were allowed to adhere to the bottom of plates for 3-5 hours in a 37° C. 5% CO2 incubator. Compounds were dissolved in DMSO and then transferred to the cell plates. The cells were incubated with the compounds for 3 days in a 37° C. 5% CO2 incubator. The growth medium containing the compounds was then removed from the cells and fresh medium was added, followed by 100 μL of Cell Titer Glo assay reagent (Promega). This mixture was shaken for 1 minute and then incubated without shaking for 10 minutes. Activity determinations for the compounds were made by detection on a Trilux Instrument.

[3] = tested on: A2780 cells; test: Cell Proliferation Assay (Cell Titer Glo), A2780; assay type: cell-based; details: Homo sapiens, read-out: CPEC50 A2780
Procedure, shortened: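 Following a 3-day compound exposure (37° C., 5% CO2) of A2780 or PC3MM cells plated at 1000 per well, viability was measured by Cell Titer Glo luminescence in fresh medium, read 10 min after reagent addition.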

[4] = cell proliferation, PC3MM cells
[5] = cell proliferation, A2780 cells

SMILES	IC50 [1]	EC50 [2, 4]	EC50 [3, 5]	EC50 ([2]; Cell Proliferation Assay, PC3MM)	EC50 ([3]; Cell Proliferation Assay, A2780)
CNC(=O)c1ccc(Nc2ncc3cccc(OC4CCN(C(C)C)CC4)c3n2)cc1 [Compound 796, 4-(8-(1-isopropylpiperidin-4-yloxy)quinazolin-2-ylamino)-N-methylbenzamide]	< 5 µM	< 5 µM	< 5 µM	–	–
NC(=O)c1cccc(-c2cccc3cnc(Nc4ccc(S(N)(=O)=O)cc4)nc23)c1 [Compound 734, 3-(2-(4-sulfamoylphenylamino)quinazolin-8-yl)benzamide]	< 5 µM	< 5 µM	< 5 µM	–	–
NS(=O)(=O)c1ccc(Nc2ncc3cccc(O[C@@H]4CCNC4)c3n2)cc1 [Compound 726, (R)-4-(8-(pyrrolidin-3-yloxy)quinazolin-2-ylamino)benzenesulfonamide]	< 5 µM	< 5 µM	< 5 µM	–	–
CN1CCCC(Oc2cccc3cnc(Nc4ccc(S(N)(=O)=O)cc4)nc23)C1 (stereo not drawn) [Compound 733, 4-(8-(1-methylpiperidin-3-yloxy)quinazolin-2-ylamino)benzenesulfonamide]	< 5 µM	< 5 µM	< 5 µM	–	–
Cc1csc(NC(=O)c2ccc3cnc(Nc4ccc(S(N)(=O)=O)cc4)nc3c2)c1C(N)=O [Compound 839, N-(3-carbamoyl-4-methylthiophen-2-yl)-2-(4-sulfamoylphenylamino)quinazoline-7-carboxamide]	< 5 µM	< 5 µM	< 5 µM	–	–
O=S(=O)(NC1CC1)c1cccc(Nc2ncc3cccc(OC4CCNCC4)c3n2)c1 [Compound 812, N-cyclopropyl-3-(8-(piperidin-4-yloxy)quinazolin-2-ylamino)benzenesulfonamide]	< 5 µM	< 5 µM	< 5 µM	–	–
CC(C)NS(=O)(=O)c1cccc(Nc2ncc3cccc(OC4CCNCC4)c3n2)c1 [Compound 776, N-isopropyl-3-(8-(piperidin-4-yloxy)quinazolin-2-ylamino)benzenesulfonamide]	< 5 µM	< 5 µM	< 5 µM	–	–
CC(=O)c1ccc(-c2cccc3cnc(Nc4ccc(S(N)(=O)=O)cc4)nc23)cc1 [Compound 731, 4-(8-(4-acetylphenyl)quinazolin-2-ylamino)benzenesulfonamide]	< 5 µM	< 5 µM	5 to 10 µM	–	–
CC(C)N1CC(Oc2cccc3cnc(Nc4ccc(S(N)(=O)=O)cc4)nc23)C1 [Compound 818, 4-(8-(1-isopropylazetidin-3-yloxy)quinazolin-2-ylamino)benzenesulfonamide]	< 5 µM	< 5 µM	< 5 µM	–	–
NS(=O)(=O)c1ccc(Nc2ncc3cccc(-c4cccnc4)c3n2)cc1 [Compound 742, 4-(8-(pyridin-3-yl)quinazolin-2-ylamino)benzenesulfonamide]	< 5 µM	< 5 µM	5 to 10 µM	–	–
NS(=O)(=O)c1ccc(Nc2ncc3cccc(-c4cnoc4)c3n2)cc1 [Compound 748, 4-(8-(isoxazol-4-yl)quinazolin-2-ylamino)benzenesulfonamide]	< 5 µM	< 5 µM	< 5 µM	–	–
NS(=O)(=O)c1ccc(Nc2ncc3cccc(C(=O)N4CCOCC4)c3n2)cc1 [Compound 768, 4-(8-(morpholine-4-cartbonyl)quinazolin-2-ylamino)benzenesulfonamide]	5 to 10 µM	5 to 10 µM	5 to 10 µM	–	–
NC(=O)c1ccc(-c2cccc3cnc(Nc4ccc(S(N)(=O)=O)cc4)nc23)cc1 [Compound 740, 4-(2-(4-sulfamoylphenylamino)quinazolin-8-yl)benzamide]	< 5 µM	< 5 µM	5 to 10 µM	–	–
NC(=O)c1ccc(-c2ccc3cnc(Nc4ccc(S(N)(=O)=O)cc4)nc3c2)cn1 [Compound 790, 5-(2-(4-sulfamoylphenylamino)quinazolin-7-yl)picolinamide]	< 5 µM	< 5 µM	5 to 10 µM	–	–
NS(=O)(=O)c1ccc(Nc2ncc3ccc(C(=O)N4CCCC4)cc3n2)cc1 [Compound 820, 4-(7-(pyrrolidine-1-carbonyl)quinazolin-2-ylamino)benzenesulfonamide]	< 5 µM	< 5 µM	< 5 µM	–	–
NC(=O)c1ccc(-c2ccc3cnc(Nc4ccc(S(N)(=O)=O)cc4)nc3c2)cc1F [Compound 759, 2-fluoro-4-(2-(4-sulfamoylphenylamino)quinazolin-7-yl)benzamide]	< 5 µM	< 5 µM	5 to 10 µM	–	–
CN1CCN(C(=O)c2ccc(-c3cccc4cnc(Nc5ccc(S(N)(=O)=O)cc5)nc34)cc2)CC1 [Compound 824, 4-(8-(4-(4-methylpiperazine-1-carbonyl)phenyl)quinazolin-2-ylamino)benzenesulfonamide]	< 5 µM	< 5 µM	< 5 µM	–	–
CN1CCN(S(=O)(=O)c2cccc(Nc3ncc4cccc(OC5CCNCC5)c4n3)c2)CC1 [Compound 775, N-(3-(4-methylpiperazin-1-ylsulfonyl)phenyl)-8-(piperidin-4-yloxy)quinazolin-2-amine]	< 5 µM	< 5 µM	5 to 10 µM	–	–
CN1CCC(Oc2cc3nc(Nc4ccc(N5CCOCC5)cc4)ncc3cc2-c2nccs2)CC1 [Compound 653, 7-(1-methylpiperidin-4-yloxy)-N-(4-morpholinophenyl)-6-(thiazol-2-yl)quinazolin-2-amine]	< 5 µM	–	–	< 5 µM	< 5 µM
NS(=O)(=O)c1ccc(Nc2ncc3cccc(-c4ccnc(NCCN5CCCC5)c4)c3n2)cc1 [Compound 747, 4-(8-(2-(2-(pyrroIidin-1-yl)ethylamino)pyridin-4-yl)quinazolin-2-ylamino)benzenesulfonamide]	< 5 µM	< 5 µM	< 5 µM	–	–
Cc1nn(C)c(C)c1-c1ccc2cnc(Nc3ccc(S(N)(=O)=O)cc3)nc2c1 [Compound 848, 4-(7-(1,3,5-trimethyl-1H-pyrazol-4-yl)quinazolin-2-ylamino)benzenesulfonamide]	< 5 µM	< 5 µM	< 5 µM	–	–
Cc1ccc(Cl)cc1NC(=O)c1ccc2cnc(Nc3ccc(S(N)(=O)=O)cc3)nc2c1 [Compound 838, N-(5-chloro-2-metlhylphenyl)-2-(4-sulfamoylphenylamino)quinazoline-7-carboxamide]	< 5 µM	< 5 µM	< 5 µM	–	–
Nc1ccc(-c2cccc3cnc(Nc4ccc(S(N)(=O)=O)cc4)nc23)cn1 [Compound 821, 4-(8-(6-aminopyridin-3-yl)quinazolin-2-ylamino)benzenesulfonamide]	< 5 µM	< 5 µM	< 5 µM	–	–
COCCNc1cc(-c2cccc3cnc(Nc4ccc(S(N)(=O)=O)cc4)nc23)ccn1 [Compound 745, 4-(8-(2-(2-methoxyethylamino)pyridin-4-yl)quinazolin-2-ylamino)benzenesulfonamide]	< 5 µM	< 5 µM	< 5 µM	–	–
NS(=O)(=O)c1ccc(Nc2ncc3ccc(-c4ccc5cn[nH]c5c4)cc3n2)cc1 [Compound 813, 4-(7-(1H-indazol-6-yl)quinazolin-2-ylamino)benzenesulfonamide]	< 5 µM	< 5 µM	< 5 µM	–	–
CN1CC[C@@H](Oc2cccc3cnc(Nc4ccc(S(N)(=O)=O)cc4)nc23)C1 [Compound 727, (R)-4-(8-(1-methylpyrrolidin-3-yloxy)quinazolin-2-ylamino)benzenesulfonamide]	< 5 µM	< 5 µM	< 5 µM	–	–
NS(=O)(=O)c1ccc(Nc2ncc3cccc(-c4ccc(N5CCS(=O)(=O)CC5)nc4)c3n2)cc1 [Compound 834]	< 5 µM	< 5 µM	< 5 µM	–	–
NS(=O)(=O)c1ccc(Nc2ncc3ccc(-c4ccc5c(c4)CCNC5=O)cc3n2)cc1 [Compound 840, 4-(7-(1-oxo-1,2,3,4-tetrahydroisoquinolin-6-yl)quinazolin-2-ylamino)benzenesulfonamide]	< 5 µM	< 5 µM	5 to 10 µM	–	–
